Measurements as given in US10287301B2 (Achillion Pharmaceuticals, Inc., priority 2015, dated 2019).
pIC50: −log10 of the molar value.

These compounds were tested against Human Factor D (Homo sapiens (Human), UniProt P00746) (assay: Human Factor D Assay). Details: Human Factor D assay of Example 8; Table 2; read-out: IC50.
Format: biochemical
Summary of the method: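 Serum-purified human Factor D (80 nM final) was preincubated with test compound at various concentrations for 5 min at room temperature in 50 mM Tris, 1M NaCl, pH 7.5. Z-L-Lys-SBzl and DTNB were then added at 100 μM each. IC50 came from nonlinear regression of reaction rates versus compound concentration.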

Human Factor D, sequence (P00746 26-253): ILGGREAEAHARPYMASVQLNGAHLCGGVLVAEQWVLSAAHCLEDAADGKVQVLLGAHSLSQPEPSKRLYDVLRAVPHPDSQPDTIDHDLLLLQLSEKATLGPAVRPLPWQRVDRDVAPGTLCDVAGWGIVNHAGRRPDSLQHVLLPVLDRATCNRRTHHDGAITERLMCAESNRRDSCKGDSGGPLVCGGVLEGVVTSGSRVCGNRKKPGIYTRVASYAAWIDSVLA

Compound | pIC50
CC(=O)c1nn(CC(=O)N2C[C@H](F)C[C@H]2C(=O)Nc2cccc(Br)n2)c2ccc(-c3cnc4nc(C)ccn34)cc12 [Compound 321, (2S,4R)-1-(2-(3-acetyl-5-(7-methylimidazo[1,2-a]pyrimidin-3-yl)-1H-indazol-1-yl)acetyl)-N-(6-bromopyridin-2-yl)-4-fluoropyrrolidine-2-carboxamide] | > 6.00
CC(=O)c1nn(CC(=O)N2C[C@H](F)C[C@H]2C(=O)Nc2cncc(Br)n2)c2ccc(-c3cnc4ccnn4c3)cc12 [Compound 322, (2S,4R)-1-(2-(3-acetyl-5-(pyrazolo[1,5-a]pyrimidin-6-yl)-1H-indazol-1-yl)acetyl)-N-(6-bromopyrazin-2-yl)-4-fluoropyrrolidine-2-carboxamide] | > 6.00
CC(=O)c1cn(CC(=O)N2C[C@H](F)C[C@H]2C(=O)Nc2cncc(Br)n2)c2ccc(-c3cnc4ccnn4c3)cc12 [Compound 323, (2S,4R)-1-(2-(3-acetyl-5-(pyrazolo[1,5-a]pyrimidin-6-yl)-1H-indol-1-yl)acetyl)-N-(6-bromopyrazin-2-yl)-4-fluoropyrrolidine-2-carboxamide] | > 6.00
CC(=O)c1nn(CC(=O)N2[C@@H]3C[C@@H]3C[C@H]2C(=O)Nc2cncc(Br)n2)c2ccc(-c3cnc4cc(C)nn4c3)cc12 [Compound 324, (1R,3S,5R)-2-(2-(3-acetyl-5-(2-methylpyrazolo[1,5-a]pyrimidin-6-yl)-1H-indazol-1-yl)acetyl)-N-(6-bromopyrazin-2-yl)-2-azabicyclo[3.1.0] hexane-3-carboxamide] | > 6.00
CC(=O)c1nn(CC(=O)N2C[C@H](F)C[C@H]2C(=O)Nc2cncc(Br)n2)c2ccc(-c3ccc4nc(C)nn4c3)cc12 [Compound 325, (2S,4R)-1-(2-(3-acetyl-5-(2-methyl-[1,2,4]triazolo[1,5-a]pyridin-6-yl)-1H-indazol-1-yl)acetyl)-N-(6-bromopyrazin-2-yl)-4-fluoropyrrolidine-2-carboxamide] | > 6.00
CC(=O)c1nn(CC(=O)N2C[C@H](F)C[C@H]2C(=O)Nc2cccc(-c3sccc3Cl)c2F)c2ccc(-c3cnc(C)nc3)cc12 [Compound 327, (2S,4R)-1-(2-(3-acetyl-5-(2-methylpyrimidin-5-yl)-1H-indazol-1-yl)acetyl)-N-(3-(3-chlorothiophen-2-yl)-2-fluorophenyl)-4-fluoropyrrolidine-2-carboxamide] | > 6.00
CC(=O)c1cn(CC(=O)N2C[C@H](F)C[C@H]2C(=O)Nc2cccc(Br)n2)c2cc(O)c(-c3cnc(C)nc3)cc12 [Compound 328, (4R)-1-(2-(3-Acetyl-6-hydroxy-5-(2-methylpyrimidin-5-yl)-1H-indol-1-yl)acetyl)-N-(6-bromopyridin-2-yl)-4-fluoropyrrolidine-2-carboxamide] | > 6.00
CC(=O)c1nn(CC(=O)N2CSC(C)(C)[C@H]2C(=O)NCc2cccc(Cl)c2F)c2ccc(-c3cnc(C)nc3)cc12 [Compound 329, (R)-3-(2-(3-acetyl-5-(2-methylpyrimidin-5-yl)-1H-indazol-1-yl)acetyl)-N-(3-chloro-2-fluorobenzyl)-5,5-dimethylthiazolidine-4-carboxamide] | 5.00 to 6.00
CC(=O)c1nn(CC(=O)N2C[C@H](F)C[C@H]2C(=O)Nc2cccc(OC(F)(F)F)n2)c2ccc(-c3cnc4cc(C)nn4c3)cc12 [Compound 330, (2S,4R)-1-(2-(3-acetyl-5-(2-methylpyrazolo[1,5-a]pyrimidin-6-yl)-1H-indazol-1-yl)acetyl)-4-fluoro-N-(6-(trifluoromethoxy)pyridin-2-yl)pyrrolidine-2-carboxamide] | > 6.00
CC(=O)c1cn(CC(=O)N2[C@@H]3C[C@@H]3C[C@H]2C(=O)Nc2cncc(Br)n2)c2ccc(-c3cnc4cc(C)nn4c3)cc12 [Compound 331, (1R,3S,5R)-2-(2-(3-acetyl-5-(2-methylpyrazolo[1,5-a]pyrimidin-6-yl)-1H-indol-1-yl)acetyl)-N-(6-bromopyrazin-2-yl)-2-azabicyclo[3.1.0] hexane-3-carboxamide] | > 6.00
CC(=O)c1nn(CC(=O)N2C[C@H](F)C[C@H]2C(=O)Nc2cc(C)cc(Br)n2)c2ccc(-c3cnc4cc(C)nn4c3)cc12 [Compound 332, (2S,4R)-1-(2-(3-acetyl-5-(2-methylpyrazolo[1,5-a]pyrimidin-6-yl)-1H-indazol-1-yl)acetyl)-N-(6-bromo-4-methylpyridin-2-yl)-4-fluoropyrrolidine-2-carboxamide] | > 6.00

Same assay, conditions: Table 3; Human Factor D 80 nM, substrate Z-L-Lys-SBzl; read-out: IC50 (Stars)

Compound | pIC50
CC(=O)c1cn(CC(=O)N2C[C@H](F)C[C@H]2C(=O)Nc2cccc(-c3ccccc3Cl)c2F)c2ccc(-c3cnc(O[C@@H]4CO[C@H]5[C@@H]4OC[C@H]5O)nc3)cc12 [Compound 333, (2S,4R)-1-(2-(3-acetyl-5-(2-(((3R,3aR,6R,6aR)-6-hydroxyhexahydrofuro [3,2-b]furan-3-yl)oxy)pyrimidin-5-yl)-1H-indol-1-yl)acetyl)-N-(2′-chloro-2-fluoro-[1,1′-biphenyl]-3-yl)-4-fluoropyrrolidine-2-carboxamide] | > 6.00
CC(=O)c1cn(CC(=O)N2C[C@H](F)C[C@H]2C(=O)Nc2cccc(Br)n2)c2ccc(-c3cnc(O[C@@H]4CO[C@H]5[C@@H]4OC[C@H]5O)nc3)cc12 [Compound 334, (2S,4R)-1-(2-(3-acetyl-5-(2-(((3R,3aR,6R,6aR)-6-hydroxyhexahydrofuro [3,2-b]furan-3-yl)oxy)pyrimidin-5-yl)-1H-indol-1-yl)acetyl)-N-(6-bromopyridin-2-yl)-4-fluoropyrrolidine-2-carboxamide] | > 6.00
CO[C@@H]1CO[C@H]2[C@@H]1OC[C@H]2Oc1ncc(-c2ccc3c(c2)c(C(C)=O)cn3CC(=O)N2C[C@H](F)C[C@H]2C(=O)Nc2cccc(-c3ccccc3Cl)c2F)cn1 [Compound 335] | > 6.00
CO[C@@H]1CO[C@H]2[C@@H]1OC[C@H]2Oc1ncc(-c2ccc3c(c2)c(C(C)=O)cn3CC(=O)N2C[C@H](F)C[C@H]2C(=O)Nc2cccc(Br)n2)cn1 [Compound 337, (2S,4R)-1-(2-(3-acetyl-5-(2-(((3R,3aR,6R,6aR)-6-methoxyhexahydrofuro [3,2-b]furan-3-yl)oxy)pyrimidin-5-yl)-1H-indol-1-yl)acetyl)-N-(6-bromopyridin-2-yl)-4-fluoropyrrolidine-2-carboxamide] | > 6.00
Cc1ncc(-c2ccc3c(c2)c(CC(N)=O)nn3CC(=O)N2C[C@H](F)C[C@H]2C(=O)Nc2cccc(Br)n2)cn1 [Compound 340, (2S,4R)-1-(2-(3-(2-amino-2-oxoethyl)-5-(2-methylpyrimidin-5-yl)-1H-indazol-1-yl)acetyl)-N-(6-bromopyridin-2-yl)-4-fluoropyrrolidine-2-carboxamide] | 5.00 to 6.00
CC(=O)c1nn(CC(=O)N2C[C@H](F)C[C@H]2C(=O)Nc2cccc(-c3cc(S(N)(=O)=O)ccc3Cl)c2F)c2ccc(-c3cnc(C)nc3)cc12 [Compound 341, (2S,4R)-1-(2-(3-Acetyl-5-(2-methylpyrimidin-5-yl)-1H-indazol-1-yl)acetyl)-N-(2′-chloro-2-fluoro-5′-sulfamoyl-[1,1′-biphenyl]-3-yl)-4-fluoropyrrolidine-2-carboxamide] | > 6.00
CNS(=O)(=O)c1ccc(Cl)c(-c2cccc(NC(=O)[C@@H]3C[C@@H](F)CN3C(=O)Cn3nc(C(C)=O)c4cc(-c5cnc(C)nc5)ccc43)c2F)c1 [Compound 342, (2S,4R)-1-(2-(3-Acetyl-5-(2-methylpyrimidin-5-yl)-1H-indazol-1-yl)acetyl)-N-(2′-chloro-2-fluoro-5′-(N-methylsulfamoyl)-[1,1′-biphenyl]-3-yl)-4-fluoropyrrolidine-2-carboxamide] | > 6.00
CC(=O)c1nn(CC(=O)N2C[C@H](F)C[C@H]2C(=O)Nc2cccc(-c3cc(S(=O)(=O)N(C)C)ccc3Cl)c2F)c2ccc(-c3cnc(C)nc3)cc12 [Compound 343, (2S,4R)-1-(2-(3-Acetyl-5-(2-methylpyrimidin-5-yl)-1H-indazol-1-yl)acetyl)-N-(2′-chloro-5′-(N,N-dimethylsulfamoyl)-2-fluoro-[1,1′-biphenyl]-3-yl)-4-fluoropyrrolidine-2-carboxamide] | > 6.00
CC(=O)c1nn(CC(=O)N2C[C@H](F)C[C@H]2C(=O)Nc2cccc(OC(F)(F)F)n2)c2ccc(-c3cnc(C)nc3)cc12 [Compound 344, (2S,4R)-1-(2-(3-Acetyl-5-(2-methylpyrimidin-5-yl)-1H-indazol-1-yl)acetyl)-4-fluoro-N-(6-(trifluoromethoxy)pyridin-2-yl)pyrrolidine-2-carboxamide] | > 6.00
CC(=O)c1nn(CC(=O)N2C[C@H](F)C[C@H]2C(=O)Nc2cc(C)cc(Br)n2)c2ccc(-c3cnc(C)nc3)cc12 [Compound 345, (2S,4R)-1-(2-(3-Acetyl-5-(2-methylpyrimidin-5-yl)-1H-indazol-1-yl)acetyl)-N-(6-bromo-4-methylpyridin-2-yl)-4-fluoropyrrolidine-2-carboxamide] | > 6.00
CC(=O)c1nn(CC(=O)N2C[C@H](F)[C@@H](O)[C@H]2C(=O)Nc2cccc(Br)n2)c2ccc(-c3cnc(C)nc3)cc12 [Compound 346, (2S,3S,4S)-1-(2-(3-Acetyl-5-(2-methylpyrimidin-5-yl)-1H-indazol-1-yl)acetyl)-N-(6-bromopyridin-2-yl)-4-fluoro-3-hydroxypyrrolidine-2-carboxamide] | > 6.00
CC(=O)c1nn(CC(=O)N2C[C@H](F)C[C@H]2C(=O)Nc2cnc(C)c(Br)n2)c2ccc(-c3cnc(C)nc3)cc12 [Compound 349, (2S,4R)-1-(2-(3-Acetyl-5-(2-methylpyrimidin-5-yl)-1H-indazol-1-yl)acetyl)-N-(6-bromo-5-methylpyrazin-2-yl)-4-fluoropyrrolidine-2-carboxamide] | > 6.00
CC(=O)c1nn(CC(=O)N2[C@@H]3C[C@@H]3C[C@H]2C(=O)Nc2cncc(Br)n2)c2ccc(-c3cnc(C)nc3)cc12 [Compound 350, (1R,3S,5R)-2-(2-(3-Acetyl-5-(2-methylpyrimidin-5-yl)-1H-indazol-1-yl)acetyl)-N-(6-bromopyrazin-2-yl)-2-azabicyclo[3.1.0]hexane-3-carboxamide] | > 6.00
COc1cc(Br)nc(NC(=O)[C@@H]2C[C@@H](F)CN2C(=O)Cn2nc(C(C)=O)c3cc(-c4cnc(C)nc4)ccc32)c1 [Compound 351] | > 6.00
